According to US6992068B2 (Gifu Shellac Mfg., Co., Ltd., priority 2000, dated 2006):

Experiments:
[1] = system: liver function; assay: Experiment 6: protecting and promoting liver function by purified periandrins, same manner as Experiment 1; assay type: in vivo, rats; settings: 0.1-3 mg/Kg of body weight per injection
Method: (§1) In this case, however, the number of groups of rats were made six, one of which includes the rats to which PD-I was injected, another of which includes the rats to which PD-II was injected, another of which includes the rats to which PD-III was injected, another of which includes the rats to which PD-IV was injected, another of which includes the rats to which prednisolone acetate was injected, and another of which includes the rats to which a solvent without any drugs was injected.
(§2) The dose per one injection of PD-I, PD-II, PD-III and PD-IV was 0.1-3 mg/Kg of body weight.
(§3) The dose per one injection of prednisolone acetate was 5 mg/Kg of body weight.

[2] = system: collagen induction arthritis model; assay: Experiment 2: collagen induction arthritis model, arthritis index; assay type: in vivo, mice; settings: for symptoms of arthritis: purified periandrins in the model of Experiment 2; for arthritis index (ranking 0-5), group average: 5 mg/head i.p. every other day
Method: Clinical symptoms of arthritis of mice in the respective groups were evaluated by one and the same observer using 6 rankings from zero to five (the larger the value is, the worse the symptom is), and the averages per the respective groups were calculated. These evaluations were performed in 0, 3rd, 4th, 5th, 6th, 7th and 8th week after the first immunity The results were shown in FIG. 3 and Table 3.

[3] = system: cytokine production; assay: Experiment 6: inhibition of cytokine production by purified periandrins, same manner as Experiment 1; assay type: in vivo, rats; settings: 0.1-3 mg/Kg of body weight per injection
Method: as §1, §2, §3

[4] = system: autoimmune encephalomyelitis model; assay: Experiment 3: autoimmune encephalomyelitis model, clinical score; assay type: in vivo, rats; settings: for symptoms of encephalomyelitis: purified periandrins in the model of Experiment 3
[5] = molecular target: T1, 11 β-hydroxysteroid dehydrogenase (Rattus norvegicus, UniProt P16232); assay: Experiment 5: inhibition of 11 β-hydroxysteroid dehydrogenase activity (rat liver microsome, cortisone by HPLC); assay type: biochemical; settings: for inhibitory activity relative to glycirrhizin: from IC50 values; for IC50: rat liver microsome, substrate hydrocortisone, NADP 1 mM, pH 8.0, read-out: IC50 (concentration in which 50 percent of enzyme activity is inhibited)
T1 construct: Fresh rat liver was ice-cooled and homogenized in 0.25 M sucrose solution; from tissue; host or cells: rat liver microsome fraction
T1 sequence (P16232 whole entry): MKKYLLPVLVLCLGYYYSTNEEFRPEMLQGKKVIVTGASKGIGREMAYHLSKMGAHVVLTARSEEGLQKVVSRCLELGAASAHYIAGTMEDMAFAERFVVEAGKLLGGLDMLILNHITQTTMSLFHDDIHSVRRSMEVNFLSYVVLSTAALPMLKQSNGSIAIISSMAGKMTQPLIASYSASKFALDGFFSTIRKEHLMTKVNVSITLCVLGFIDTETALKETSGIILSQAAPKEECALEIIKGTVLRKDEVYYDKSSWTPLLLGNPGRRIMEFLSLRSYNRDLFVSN
Method: In order to evaluate the effect of inhibiting 11 β-hydeoxysteroid dehydrogenase activity by the purified periandrins (PD-I, PD-II, PD-III, PD-IV) obtained in Example 4 or 5, IC 50 values (concentration in which the 50 percent of activity of the above enzyme is inhibited) of the purified periandrins were measured by the following steps I-VI.
I. An enzymatic solution containing rat liver microsome as a preparation of 11 β-hydroxysteroid dehydrogenase was prepared as below.
Fresh rat liver was ice-cooled and homogenized in 0.25 M sucrose solution. Then, at the temperature of 4° C., it was centrifuged for 20 minutes at 10,000×g.
After separating cell organelles of the nucleus, mitochondria and lysosome as deposits, the supernatant layer was further centrifuged at 105,000×g for 60 minutes at the temperature of 4° C. to obtain a microsome fraction as a precipitate.
The obtained microsome fraction was suspended by 0.25 M sucrose solution to produce an enzymatic solution, and the obtained solution was stored at the temperature of −20 degrees till the time of measurement of enzyme activity.
1 mM of NADP (product of Oriental Yeast Co., Ltd,) as a coenzyme and an amount of PD-I having a predetermined concentration (ranging from 2 to 1480 μM) as an inhibitor were added to 0.8 ml of Tris-HCI buffer solution having the concentration of 100 mM (PH8.0).
0.2 ml of the enzymatic solution prepared in step I was added to the obtained solution, and after three minutes of preincubation at 37° C., 0.02 ml of 5 mM hydrocortisone solution which was dissolved in methanol was added to start a reaction between 11 β-hydroxysteroid dehydrogenase and PD-I. The reaction was continued for 30 minutes at the temperature of 30° C., and then it was stopped by adding 0.5 ml of ethyl acetate.
This solution was centrifuged and an ethyl acetate layer was separated into an Eppendorf tube. In the mean time, cortisone and substrate hydrocortisone generated by the reaction between 11 β-hydroxysteroid dehydrogenase and substrate hydrocortisone are transferred to the ethyl acetate layer.
Furthermore, the water phase after the centrifuge was again centrifuged in the same manner as above by adding 0.5 ml of ethyl acetate to separate an ethyl acetate layer. This process was repeated two more times.
The ethyl acetate layers obtained by three time extraction were put together into an Eppendorf tube and dried using a centrifugal evaporator.
To prepare a measurement sample, 0.2 ml of methanol was added into the Eppendorf tube in which the ethyl acetate layers were dried in step II, and then the tube was left for a night so that cortisone was completely dissolved. Cortisone was determined using HPLC.
Particularly, quantity of cortisone contained in the sample was calculated from a ratio of a peak area corresponding to cortisone when the measurement sample was introduced to HPLC to a peak area when 5 μl of standard solution (0.1 mg/ml of cortisone-methanol solution) was introduced.
The measurement conditions of HPLC were as follows.
IV. Relative activity (ratio of activity remained after reaction with an inhibitor to the initial activity) of 11 β-hydroxysteroid dehydrogenase was calculated from the quantity of cortisone in accordance with the following equation. Relative activity=((CI−CBL)/(CT−CBL))×100(%) • where • CT: cortisone quantity generated when no inhibitor is added; • CI: cortisone quantity generated when an inhibitor exists; and • CBL: cortisone quantity when enzyme is not added.
V. Measurement of relative activity when PD-II, PD-III, PD-IV, and glycirrhizin were added as an inhibitor instead of PD-I was performed in the same manner as in steps I-IV.
The concentration of the inhibitor PD-I, PD-II, PD-III or PD-IV in the measurement of relative activity is a predetermined value ranging from 2 to 1480 μM. The concentration of glycirrhizin is a predetermined value ranging from 0.2 to 445 μM. […]

[6] = system: collagen induction arthritis model; assay: Experiment 2: collagen induction arthritis model, foot pad swelling (foot pad volume); assay type: in vivo, mice; settings: 5 mg/head i.p. every other day
Method: These evaluations were performed in 0, 3rd, 4th, 5th, 6th, 7th and 8th weeks after the first immunity. The values in FIG. 4 are relative values based on the initial hind foot pad volumes.

[7] = extracts of Example 2 / Comparative Example 2 6 and 12.5 mg/head, prednisolone acetate 5 mg/Kg, i.p. every other day, eight weeks
[8] = Experiment 4: weight changes of rats in autoimmune encephalomyelitis model; assay type: in vivo; settings: 5 mg/Kg of body weight per injection
Method: The immunosuppressive effect of the BL. 1, BL. 2 and […].
The manner of experiment was basically the same as the aforementioned Experiment 3.
However, the number of groups of rats were reduced to five, one of which included the rats to which the BL. 1 was injected, another of which included the rats to which the BL. 2 was injected, another of which included the rats to which the BL. 3 was injected, another of which included the rats to which prednisolone acetate was injected, and another of which included the rats without injection.
The dose per one injection of BL. 1, BL. 2 and BL. 3 was 6 mg/head and in the form of physiological saline.
The dose per one injection of prednisolone acetate was 5 mg/Kg of body weight and in the form of physiological saline.

[9] = system: interleukin-6 (IL-6); assay: Experiment 1: blood cytokine (IL-6) in mice with Propionivacterium acnes / lipopolysaccharide induced hepatopathy; assay type: in vivo; settings: groups B (Brazilian licorice extract of Example 1, 25 mg), D (Chinese licorice extract of Comparative Example 1, 25 mg), F (prednisolone acetate 5 mg); i.p. four times; serum 2 h after LPS
Method: (§4) The following experiment was performed to examine the effects of inhibiting cytokine production and lowering GOT activity of the extracts obtained in Example 1 and Comparative Example 1. Male mice of ddy system (Japan SLC, Inc.), each of which weighs 18-20 g, are prepared for the experiment. […] 5 mg of Propionivacterium acnes suspension was injected into the vein of the aforementioned mice respectively, to cause hepatopathy. […] 10 μg of lipopolysaccharide was injected into the vein of the mice in all groups respectively, thirty minutes after the fourth injection in step II (as to the mice in group A, the injection was performed at the same timing as the mice in the other groups). Then, two hours later, blood was taken from all the mice to obtain serum. There was no visible change in weight and food and water consumption of the mice. From the serum obtained in step III, measurement of interleukin-6 (IL-6), which is a kind of cytokine, was performed. For the measurement, a commercially available measurement kit which adopts Fluorescence Linked immuno-Sorbent Assay using fluorescence labeling antibody was used. […] The measured values in Table 1 show IL-6 levels (unit: picogram) per 1 ml serum.

[10] = system: glutamic-oxaloacetic transaminase activity (GOT); assay: Experiment 1: blood GOT activity in mice with Propionivacterium acnes / lipopolysaccharide induced hepatopathy; assay type: in vivo; settings: groups B (Brazilian licorice extract, 25 mg), D (Chinese licorice extract, 25 mg), F (prednisolone acetate 5 mg); i.p. four times
Method: as §4, with “glutamic-oxaloacetic transaminase activity (GOT)” for “measurement of interleukin-6 (IL-6), which is a kind of cytokine,”, “measured.” for “performed.”, “Enzyme” for “Fluorescence”, “enzyme” for “fluorescence”, “Units.” for “The measured values in Table 1 show IL-6 levels (unit: picogram) per 1 ml serum.”

| Compound | IC50 [5] | effect of protecting and promoting liver function [1] | symptoms of arthritis [2] | effect of inhibiting cytokine production [3] | symptoms of encephalomyelitis [4] | inhibitory activity relative to glycirrhizin [5] | further results |
| --- | --- | --- | --- | --- | --- | --- | --- |
| CC1(C)[C@@H](O[C@H]2O[C@H](C(=O)O)[C@@H](O)[C@H](O)[C@H]2O[C@@H]2O[C@H](C(=O)O)[C@@H](O)[C@H](O)[C@H]2O)CC[C@]2(C)[C@H]3C(=O)C=C4[C@@H]5C[C@@](C)(C(=O)O)CC[C@]5(C)CC[C@@]4(C)[C@]3(C)CC[C@@H]12 [glycirrhizin, reference compound] | 26.2 µM | – | – | – | – | – | – |
| periandrin IV [PD-IV] | 240 µM | protecting and promoting liver function | eased the symptoms of arthritis | show the effects of inhibiting cytokine production | eased the symptoms of arthritis and encephalomyelitis | about one fifth to one twentieth of glycirrhizin | – |
| CC(=O)OCC(=O)[C@@]1(O)CC[C@H]2[C@@H]3CCC4=CC(=O)C=C[C@]4(C)[C@H]3[C@@H](O)C[C@@]21C [prednisolone acetate] | – | – | – | – | – | – | hind foot pad volume, group average, relative to initial volume ([6]; 3rd week): 99.2; hind foot pad volume, group average, relative to initial volume ([6]; 4th week): 95.2; hind foot pad volume, group average, relative to initial volume ([6]; 5th week): 101.1; hind foot pad volume, group average, relative to initial volume ([6]; 6th week): 102.4; hind foot pad volume, group average, relative to initial volume ([6]; 7th week): 95.5; hind foot pad volume, group average, relative to initial volume ([6]; 8th week): 97.9; hind foot pad volume, group average, relative to initial volume ([6]; Primary immunity): 100; arthritis index (ranking 0-5), group average ([2]; 3rd week): 0; arthritis index (ranking 0-5), group average ([2]; 4th week): 0; arthritis index (ranking 0-5), group average ([2]; 5th week): 0; arthritis index (ranking 0-5), group average ([2]; 6th week): 0; arthritis index (ranking 0-5), group average ([2]; 7th week): 0.125; arthritis index (ranking 0-5), group average ([2]; 8th week): 0.125; arthritis index (ranking 0-5), group average ([2]; Primary immunity): 0; average weight of mice (FIG. 2) [7]: reduced significantly; weight increase compared to the other groups (FIG. 6, words) [8]: had the least increase; blood IL-6 level, average of eight mice [9]: 26473 picogram per 1 ml serum; time at which a few rats developed encephalomyelitis ([4]; group R, 5 mg/Kg of body weight i.p. once a day for 12 days): 8-11 days after the injection of emulsion; blood GOT activity level, average of eight mice [10]: 350.705 Kermen Units |

More lines, in order of falling IC50 [5], values ahead:

| IC50 [5] | Compound | effect of protecting and promoting liver function [1] | symptoms of arthritis [2] | effect of inhibiting cytokine production [3] | symptoms of encephalomyelitis [4] | inhibitory activity relative to glycirrhizin [5] | further results |
| --- | --- | --- | --- | --- | --- | --- | --- |
| 581 µM | CC1(C(=O)O)C=C2C3CCC4C5(CO)CCC(OC6OC(C(=O)O)C(O)C(O)C6OC6OC(C(=O)O)C(O)C(O)C6O)C(C)(C)C5CCC4(C)C3(C)CCC2(C)CC1 (centres unmarked) [PD-III, periandrin III] | protecting and promoting liver function | eased the symptoms of arthritis | show the effects of inhibiting cytokine production | eased the symptoms of arthritis and encephalomyelitis | about one fifth to one twentieth of glycirrhizin | – |
| 214 µM | CC1(C)[C@@H](O[C@@H]2O[C@H](C(=O)O)[C@@H](O)[C@H](O)[C@H]2O[C@@H]2O[C@H](C(=O)O)[C@@H](O)[C@H](O)[C@H]2O)CC[C@]2(C=O)[C@H]3CC[C@@H]4C5=C[C@@](C)(C(=O)O)CC[C@]5(C)CC[C@@]4(C)[C@]3(C)CC[C@@H]12 [PD-I, periandrin I] | protecting and promoting liver function | eased the symptoms of arthritis | show the effects of inhibiting cytokine production | eased the symptoms of arthritis and encephalomyelitis | about one fifth to one twentieth of glycirrhizin | – |
| 150 µM | periandrin II [PD-II] | protecting and promoting liver function | eased the symptoms of arthritis | show the effects of inhibiting cytokine production | eased the symptoms of arthritis and encephalomyelitis | about one fifth to one twentieth of glycirrhizin | – |
